Test results: patent US5250416A, “Method for highly sensitive determination of NADH using kinase” (Noda Institute for Scientific Rsearch, priority 1991, dated 1993)

Columns and labels:
[1] = system: NADH kinase (the present enzyme); assay: Km value (Michaelis constant) of the present enzyme for NADH; assay type: biochemical, Pichia membranaefaciens; details: 30° C., pH 7.8 (Tris buffer)
Method: 0.9 Milliliters of the substrate solution containing NADH shown in Table 2 was preheated to 30° C., after which 0.1 ml of a solution of the present enzyme having an adequate concentration was added, and the reaction was carried out at 30° C. for 20 minutes. Thereafter, the reaction was terminated by heat treatment at 100° C. for 2 minutes, and the denatured protein was removed. Then, the amount of NADPH produced by the reaction of the substrate was measured as follows. As a control solution, there was used a mixture of the substrate solution and the present enzyme in which the reaction had been terminated immediately after mixing them.
With 1 ml of each of the reaction solutions obtained in the above was mixed 1 ml of a color-producing solution having the same composition as that of the color-producing solution described in the above item "Substrate specificity". […] Simultaneously with the reaction, the change of absorbance at 600 nm was measured with the lapse of time, and the difference (ΔOD600nm /min) between absorbance values 1 minute and 2 minutes after the initiation of the coloration reaction was obtained as a measured value. By the use of a calibration curve of ΔOD600nm /min versus NADPH concentration previously prepared using NADPH solutions of known concentrations, the amount of the NADPH produced was calculated from the measured value.

NADH kinase B = molecular target: T1, NADH kinase B (Saccharomyces cerevisiae, UniProt Q06892); details: as substrate of NADH kinase B; from reference; cited from earlier work
T1 sequence (Q06892 1-414): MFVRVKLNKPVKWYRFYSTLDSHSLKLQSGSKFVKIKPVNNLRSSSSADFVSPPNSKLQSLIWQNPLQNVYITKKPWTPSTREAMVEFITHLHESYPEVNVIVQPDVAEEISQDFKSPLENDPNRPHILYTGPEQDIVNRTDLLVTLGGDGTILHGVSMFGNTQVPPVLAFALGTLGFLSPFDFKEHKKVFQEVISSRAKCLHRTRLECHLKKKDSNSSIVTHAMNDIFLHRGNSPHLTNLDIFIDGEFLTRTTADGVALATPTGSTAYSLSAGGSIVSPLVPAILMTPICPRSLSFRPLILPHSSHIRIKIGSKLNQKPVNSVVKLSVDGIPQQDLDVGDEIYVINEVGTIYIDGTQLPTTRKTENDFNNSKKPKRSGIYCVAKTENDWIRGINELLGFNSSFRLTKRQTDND

[2] = system: NADH kinase (the present enzyme); assay: Substrate specificity of the present enzyme (NADH kinase); assay type: biochemical, Pichia membranaefaciens; details: for Relative activity (%): as substrate of the present enzyme, 30° C., 20 minutes, pH 8.5, relative to NADH = 100; for Action of the present enzyme on the substrate (in words): substrate specificity
Method: The substrate specificity of the present enzyme was examined under the following reaction conditions.
To 0.9 ml of each of the substrate solutions containing NADH or NAD^+, respectively, shown in Table 1 was added 0.1 ml of 23 U/ml of the present enzyme, and the reaction was carried out at 30° C. for 20 minutes. Then, the reaction was terminated by heat treatment at 100° C. for 2 minutes, and the denatured protein was removed, after which the amount of NADPH or NADP^+ produced by the reaction of the corresponding substrate was measured as follows. As a control solution, there was used a mixture of each substrate solution and the present enzyme in which the reaction had been terminated immediately after mixing them.
With 1 ml of each of the reaction solutions obtained in the above was mixed 1 ml of a color-producing solution consisting of 10 mM G-6-P, 50 mM HEPPS buffer (pH 8.0), 10 mM magnesium chloride, 0.1% bovine serum albumin, 2.5 IU/ml G-6-P dehydrogenase (NADP^+ -dependent), 5 IU/ml diaphorase and 250 μM 2,6-dichlorophenolindophenol. The resulting mixture was immediately introduced into a constant-temperature cuvette of STASAR III spectrophotometer of Gilford and subjected to reaction at 30° C. Simultaneously with the reaction, the change of absorbance at 600 nm was measured with the lapse of time, and the difference (ΔOD600nm /min) between absorbance values 1 minute and 2 minutes after the initiation of the coloration reaction was taken as a measured value. As to the relative activity (%), a measured value (ΔOD600nm /min) obtained by using NAD^+ as substrate was shown as a percentage based on a measured value (ΔOD600nm /min) obtained by using NADH as substrate.

NADH kinase A = molecular target: T2, NADH kinase A (Saccharomyces cerevisiae, UniProt Q06892); details: as substrate of NADH kinase A; from reference; cited from earlier work
T2 sequence (Q06892 1-414): T1 sequence (Q06892 1-414)

[3] = system: NADH kinase (the present enzyme); assay: Inhibition, activation and stabilization of the present enzyme; assay type: biochemical, Pichia membranaefaciens

NC(=O)C1=CN([C@@H]2O[C@H](COP(=O)(O)OP(=O)(O)OC[C@H]3O[C@@H](n4cnc5c(N)ncnc54)[C@H](O)[C@@H]3O)[C@@H](O)[C@H]2O)C=CC1 [NADH]
Km [1]: 27 µM | Specificity (relative activity, NADH = 100) (NADH kinase B): 100 | Relative activity (%) [2]: 100% | Action of the present enzyme on the substrate (in words) [2]: very high specificity | Specificity (relative activity, NADH = 100) (NADH kinase A): 100

NC(=O)c1ccc[n+]([C@@H]2O[C@H](COP(=O)([O-])OP(=O)(O)OC[C@H]3O[C@@H](n4cnc5c(N)ncnc54)[C@H](O)[C@@H]3O)[C@@H](O)[C@H]2O)c1 [NAD^+]
Specificity (relative activity, NADH = 100) (NADH kinase B): 1.6 | Relative activity (%) [2]: 0.9% | Action of the present enzyme on the substrate (in words) [2]: hardly acts | Specificity (relative activity, NADH = 100) (NADH kinase A): 1.7

CC(=O)N[C@@H](CS)C(=O)O [N-acetyl-L-cysteine]
Stabilization of the present enzyme [3]: stabilized

O[C@H](CS)[C@H](O)CS (racemic) [dithiothreitol]
Stabilization of the present enzyme [3]: stabilized
